{
  "source": "patent US8246758B2",
  "about": "“Neutral or alkaline medium chain peroxycarboxylic acid compositions and methods employing them” (Ecolab USA Inc., priority 2004, dated 2012)",
  "key": {"Mycobacterium bovis BCG": {"test_system": "Mycobacterium bovis BCG", "format": "cell-based"}, "[1]": {"test_system": "spores of Clostridium sporogenes ATCC 3584", "format": "cell-based", "settings": "pH 6.5, 10 hrs, Ambient"}, "[2]": {"test_system": "Trichophyton mentagrophytes ATCC 9533", "assay": "AOAC Fungicidal Activity of Disinfectants (955.17)", "format": "cell-based", "settings": "pH 6.5, 5 min, Ambient", "procedure": "Activity against fungus, Trichophyton mentagrophytes ATCC 9533, was evaluated using the Fungicidal Activity of Disinfectants using Trichophyton mentagrophytes, Official Methods of Analysis of the Association of Official Analytical Chemists, paragraph 955.17. Composition KK was adjusted to pH 6.5 in synthetic hard water (400 ppm hardness) and tested for activity in the presence of a 5% organic soil load. Antimicrobial efficacy was determined by exposing stainless steel penicyclinders containing dried Trichophyton mentagrophytes to 10 mL of the test substance at the desired concentration, temperature and for the desired contact time. After which each penicylinder was removed aseptically and transferred to a neutralizing subculture medium. A peroxyacetic acid composition was also tested by this procedure."}, "[3]": {"test_system": "Pseudomonas aeruginosa biofilm", "assay": "Biofilm removal from stainless steel coupon"}},
  "note": "Read-outs that look alike come from different tables or passages of the source.",
  "data": [
    {"smiles": "CC(=O)OO", "note": "[Peroxyacetic Acid]", "values": [
      {"measurement": "concentration of peroxyacetic acid needed to be as effective", "setting": "Mycobacterium bovis BCG", "result": "≥ 1250", "unit": "ppm"},
      {"measurement": "# Negative Tubes/# Tubes Tested", "setting": "[1]; 1000 ppm", "result": "59/60"},
      {"measurement": "# Negative Tubes/# Tubes Tested", "setting": "[2]; 1000 ppm", "result": "10/10"}
    ]},
    {"smiles": "CCCCCCCC(=O)OO", "note": "[Peroxyoctanoic Acid]", "values": [
      {"measurement": "# Negative Tubes/# Tubes Tested", "setting": "[1]; 400 ppm", "result": "60/60"},
      {"measurement": "# Negative Tubes/# Tubes Tested", "setting": "[2]; 400 ppm", "result": "10/10"}
    ]},
    {"smiles": "[Na+].[OH-]", "note": "[caustic, NaOH]", "values": [
      {"measurement": "survivors on enrichment of treated coupons", "setting": "[3]; caustic (3% of 50% NaOH) for 3 min at 160° F.", "result": "survivors on one of two coupons"},
      {"measurement": "biofilm cleaning performance, ranking", "setting": "[3]; total 6 min at 160° F., synthetic hard water 500 ppm, acridine orange fluorescence imaging", "result": "lastly"}
    ]}
  ]
}
